# Measurements: article PMC10708259 (Molecules, 2023)
# Structures can show the parent of a compound that is named as a salt.
# Experiments:
# [1] = molecular target: T1, human κ-opioid receptor (OPRK1) (Homo sapiens, UniProt P41145); experiment: Forskolin-induced cAMP accumulation assay, KOR antagonist mode; conditions: for KOR Antagonist %Imax ± SEM: versus EC90 of U50488H, Imax normalized to nor-BNI
# [2] = molecular target: T2, human δ-opioid receptor (OPRD1) (Homo sapiens, UniProt P41143); experiment: Forskolin-induced cAMP accumulation assay, DOR agonist mode; conditions: for Emax: CHO-K1, read-out: DOR Agonist %Emax ± SEM
# [3] = molecular target: T1, human κ-opioid receptor (OPRK1); experiment: Forskolin-induced cAMP accumulation assay, KOR agonist mode; conditions: for Emax: CHO-K1, read-out: KOR Agonist %Emax ± SEM
# [4] = molecular target: T3, human μ-opioid receptor (OPRM1) (Homo sapiens, UniProt P35372); experiment: cell-based; assay type: cell-based; conditions: for EC50: MOR Agonist EC50 ± SEM; for Emax: read-out: MOR Agonist %Emax ± SEM
# T3 construct: host or cells: cAMP Hunter CHO-K1
# [5] = molecular target: T2, human δ-opioid receptor (OPRD1); experiment: Forskolin-induced cAMP accumulation assay, DOR antagonist mode
# T2 sequence (P41143 whole entry): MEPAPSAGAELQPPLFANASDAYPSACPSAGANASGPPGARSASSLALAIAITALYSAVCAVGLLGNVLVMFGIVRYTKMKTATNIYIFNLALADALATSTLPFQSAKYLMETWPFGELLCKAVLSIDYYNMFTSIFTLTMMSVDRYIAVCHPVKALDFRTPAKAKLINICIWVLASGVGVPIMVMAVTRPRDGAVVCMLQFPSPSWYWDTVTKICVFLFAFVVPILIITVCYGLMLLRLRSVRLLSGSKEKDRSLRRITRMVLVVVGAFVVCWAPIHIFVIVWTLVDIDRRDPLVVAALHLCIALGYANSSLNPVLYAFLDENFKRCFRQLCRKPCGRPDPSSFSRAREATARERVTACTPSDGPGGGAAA
# T1 sequence (P41145 whole entry): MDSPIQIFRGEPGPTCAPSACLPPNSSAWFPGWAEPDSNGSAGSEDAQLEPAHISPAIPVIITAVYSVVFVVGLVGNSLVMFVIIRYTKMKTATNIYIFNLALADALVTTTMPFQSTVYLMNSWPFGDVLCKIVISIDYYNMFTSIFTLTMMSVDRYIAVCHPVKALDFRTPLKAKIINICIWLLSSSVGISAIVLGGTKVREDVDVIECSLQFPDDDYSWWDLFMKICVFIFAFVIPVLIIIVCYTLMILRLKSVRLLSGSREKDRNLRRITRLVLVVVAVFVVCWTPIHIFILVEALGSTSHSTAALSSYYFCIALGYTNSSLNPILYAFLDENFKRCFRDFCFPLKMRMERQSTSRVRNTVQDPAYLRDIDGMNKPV
# T3 sequence (P35372 whole entry): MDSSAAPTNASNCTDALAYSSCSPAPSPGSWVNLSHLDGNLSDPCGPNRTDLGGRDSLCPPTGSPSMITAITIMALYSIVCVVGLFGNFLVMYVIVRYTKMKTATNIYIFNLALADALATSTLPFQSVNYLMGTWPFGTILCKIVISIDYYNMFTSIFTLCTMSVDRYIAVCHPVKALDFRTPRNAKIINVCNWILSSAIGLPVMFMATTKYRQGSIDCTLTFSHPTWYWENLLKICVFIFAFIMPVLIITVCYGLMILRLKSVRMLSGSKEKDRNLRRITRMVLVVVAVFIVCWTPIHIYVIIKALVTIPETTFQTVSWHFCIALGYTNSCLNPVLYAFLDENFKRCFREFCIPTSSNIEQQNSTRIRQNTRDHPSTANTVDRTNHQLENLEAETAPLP
SMILES,IC50 [1] [nM],KOR Antagonist %Imax ± SEM [1] [%],EC50 [2] [nM],Emax [2] [%],EC50 [3] [nM],Emax [3] [%],EC50 [4] [nM],Emax [4] [%],IC50 [5] [nM],MOR agonist potency / efficacy in words [4],melting point
"CC1C2Cc3ccc(O)cc3C1(C)CCN2CCc1ccccc1[N+](=O)[O-] [Compound 5, (1R,5R,9R)-6,11-Dimethyl-3-(2-nitrophenethyl)-1,2,3,4,5,6-hexahydro-2,6-methanobenzo[d]azocin-8-ol]",717 ± 132,89 ± 5,37 ± 6,73,16 ± 4,23,2.7,101,,,
"C[C@H]1[C@H]2Cc3ccc(O)cc3[C@]1(C)CCN2CCC1CCN(C)CC1 [Compound 28, (1R,5R,9R)-6,11-Dimethyl-3-(2-(1-methylpiperidin-4-yl)ethyl)-1,2,3,4,5,6-hexahydro-2,6-methanobenzo[d]azocin-8-ol]",> 10000,,> 10000,,0.05 ± 0.02,15,> 10000,,> 10000,little or no potency,
"CC1C2Cc3ccc(O)cc3C1(C)CCN2CCc1c(Cl)cccc1Cl [Compound 22, (1R,5R,9R)-6,11-Dimethyl-3-(2,6-dichlorophenethyl)-1,2,3,4,5,6-hexahydro-2,6-methanobenzo[d]azocin-8-ol]",65 ± 24,87 ± 7,59 ± 25,78,> 10000,,4,99,,,
"CC1C2Cc3ccc(O)cc3C1(C)CCN2CCc1ccc([N+](=O)[O-])cc1 (as salt: HCl) [Compound 3, (1R,5R,9R)-6,11-Dimethyl-3-(4-nitrophenethyl)-1,2,3,4,5,6-hexahydro-2,6-methanobenzo[d]azocin-8-ol]",,,,,,,,,,,273 to 274 °C (dec.)
"CC1C2Cc3ccc(O)cc3C1(C)CCN2CCc1cccc(F)c1 [Compound 7, (1R,5R,9R)-6,11-Dimethyl-3-(3-fluorophenethyl)-1,2,3,4,5,6-hexahydro-2,6-methanobenzo[d]azocin-8-ol]",274 ± 83,87 ± 2,11 ± 4,86,> 10000,,0.6,100,,,
"C[C@H]1[C@H]2Cc3ccc(O)cc3[C@]1(C)CCN2CCc1ccc(F)cc1 [Compound 6, (2R,6R,11R)-6,11-Dimethyl-3-(4-fluorophenethyl)-1,2,3,4,5,6-hexahydro-2,6-methanobenzo[d]azocin-8-ol]",368 ± 92,71 ± 2,12 ± 3,73,7 ± 3,34,1.8,100,,,
"CC1C2Cc3ccc(O)cc3C1(C)CCN2CCc1ccccc1 [Compound 23, (1R,5R,9R)-6,11-Dimethyl-3-(phenethyl)-1,2,3,4,5,6-hexahydro-2,6-methanobenzo[d]azocin-8-ol]",281 ± 94,81 ± 5,4 ± 1,85,3.4 ± 0.4,25,0.27,101,,,
"CC1c2ccc(O)cc2[C@]2(C)CCN(CCc3ccccc3)[C@H]1[C@@H]2C (single isomer, unassigned; (-)) [(−)-39]",731 ± 362,57 ± 5,12.6 ± 3.9,91,20.7 ± 6.1,38,1.2,102,,,
"CC1C2Cc3ccc(O)cc3C1(C)CCN2CCc1cccc(Br)c1 [Compound 13, (1R,5R,9R)-6,11-Dimethyl-3-(3-bromophenethyl)-1,2,3,4,5,6-hexahydro-2,6-methanobenzo[d]azocin-8-ol]",90 ± 37,99 ± 2,110 ± 24,51,> 10000,,18,78,,,
"C[C@H]1[C@H]2Cc3ccc(O)cc3[C@]1(C)CCN2CCc1c[nH]c2ccccc12 [Compound 26, (1R,5R,9R)-3-(2-(1H-Indol-3-yl)ethyl)-6,11-dimethyl-1,2,3,4,5,6-hexahydro-2,6-methanobenzo[d]azocin-8-ol]",> 10000,,343 ± 35,91,> 10000,,12,102,,,
"CC1c2ccc(O)cc2[C@@]2(C)CCN(CCc3ccccc3)[C@@H]1[C@H]2C (single isomer, unassigned; (+)) [(+)-39]",> 10000,,1340 ± 389,94,953 ± 120,37,21.7,103,,,
"CC1C2Cc3ccc(O)cc3C1(C)CCN2CCc1ccccc1Br [Compound 14, (1R,5R,9R)-6,11-Dimethyl-3-(2-bromophenethyl)-1,2,3,4,5,6-hexahydro-2,6-methanobenzo[d]azocin-8-ol]",,,13 ± 2,89,16 ± 2,80,2,101,,,
"CC1C2Cc3ccc(O)cc3C1(C)CCN2CCc1cccc(Cl)c1 [Compound 16, (1R,5R,9R)-6,11-Dimethyl-3-(3-chlorophenethyl)-1,2,3,4,5,6-hexahydro-2,6-methanobenzo[d]azocin-8-ol]",111 ± 43,108 ± 10,93 ± 25,64,> 10000,,13,95,,,
